Results as given in article PMC10104742, “The Determination of Polymyxin B in Critically Ill Patients by the HPLC-MS/MS Method” (International Journal of Analytical Chemistry, 2023).
Positions of bridges follow the written chain, without caps; N, C: chain ends. Non-standard residues stand in square brackets, D forms with d. Residues, ends and D or L forms follow the SMILES beside them. *: point of attachment. X1 = CC[C@H](C)CCCCC(=O)*; Dab = NCC[C@H](N)C(=O)O

How the values were obtained:
[1] = Stability of PB in plasma QC samples (short-term, freeze-thaw, long-term); type: in vitro ADME, human; conditions: for Stability of the sample (in words): human plasma sample
Method: Blank plasma (190 μL) and 10 μL working solution were mixed to prepare calibration curves of 8000, 6000, 5000, 2400, 1200, 600, 300, and 100 ng/ml for PB1/PB1-I, and 948.5, 711.4, 592.8, 284.6, 142.3, 71.1, 35.6, and 11.9 ng/mL for PB2/PB3. Similar to the QC standards, for PB1/PB1-I, the low QC (QCL), medium QC 1 (QCM1), medium QC 2 (QCM2), and high QC (QCH) were 200, 1000, 4000, and 7000 ng/ml, respectively. For PB2/PB3, QC standards were 23.7, 118.6, 474.3, and 830.0 ng/ml. First, a 100 μL calibration sample or QC sample was removed; 10 μL IS solution, 200 μL ACN with 0.1% FA (v/v), and 0.2% TFA (v/v/v) were added successively. The samples were vortexed for 2 min to make precipate the protein fully, then centrifugated at 18800 g at 4 ℃ for 15 min. About 200 μL of the supernatant was sucked and transferred into 96-well plates for analysis.
(§1) Volume of 200 μL ACN with 0.2% TFA and 0.1% FA was added to a 100 μL plasma sample containing 10 μL IS solution, vortexed for 2 min, and centrifugated at 18800 g at 4°C for 15 min. The supernatant was then transferred to a 96-well plate for analysis.
(§2) QC samples (QCL, QCM1, QCM2, and QCH) were used to investigate the stability of the stock solutions, working solutions, and samples. Each QC was set with three parallels. The stability of plasma samples stored at room temperature (25°C) for 4 h, at 4°C in a refrigerator for 24 h, at −20°C for 37 days, and at −80°C for 97 days was investigated. The freeze-thaw stability of −20°C and −80°C freeze-thaw cycles at three times each was investigated. The stability of the stock and working solutions stored at −80°C for 97 days was investigated. The accuracy of the quality control sample should be within ±15% of the nominal concentration; the precision should be within 15%.

[2] = Stability of extracted supernatant in the autosampler; type: physicochemical; conditions: extracted supernatant in automatic sampler, 24 h
Method: The LC-MS/MS system consisted of an Agilent 1260 HPLC system equipped with a cooled autosampler (4°C) and an Agilent 6460 electrospray ionization-triple quadrupole mass spectrometer (Agilent Technologies, USA). The chromatographic column was BEH C18 (Waters, 2.1 × 50 mm, 1.7 μm) (Waters Corporation, USA). Ultrapure water was prepared using the Milli-Q Direct 8 (E. Merck, Darmstadt, Germany) water purification system. A Heraeus Multifuge X1R (Thermo Fisher Scientific, USA) high-speed refrigerated centrifuge was used for the centrifugation. SHIMADZU-AUW120D (Shimadzu Corporation, Japan) was used for the weighting.
as §1
as §2, with “The stability of the stock and working solutions stored at −80°C for 97 days was investigated. The accuracy of the quality control sample should be within ±15% of the nominal concentration; the precision should be within 15%.” left out

[3] = Stability of working and stock solutions; type: physicochemical
Method: Standard and IS stock solutions were prepared in Milli-Q water containing 1% FA (v/v) at 1 mg/mL (with all substances) and subpacked in EP tubes. Working solutions were diluted from the stock solution. The concentrations of PB1 in the PB1-I's working solution were 160, 120, 100, 48, 24, 12, 6, and 2 μg/mL. The quality control (QC) working solutions were 140, 80, 20, and 4 μg/mL. The IS solution, polymyxin E2, was diluted in 1% FA water to 7.5 μg/mL. All solutions were stored at −80°C.
as §2

CC[C@H](C)CCCCC(=O)N[C@@H](CCN)C(=O)N[C@H](C(=O)N[C@@H](CCN)C(=O)N[C@H]1CCNC(=O)[C@H]([C@@H](C)O)NC(=O)[C@H](CCN)NC(=O)[C@H](CCN)NC(=O)[C@H](CC(C)C)NC(=O)[C@@H](Cc2ccccc2)NC(=O)[C@H](CCN)NC1=O)[C@@H](C)O [PB, Polymyxin B] (X1-[Dab]T[Dab][Dab][Dab][dF]L[Dab][Dab]T; lactam 4-C)
stable: Stability of the sample (in words) ([1]; 4°C, 24 h) | Stability of the sample (in words) ([1]; room temperature, 4 h) | Stability of the sample (in words) ([1]; −20°C, three freeze-thaw cycles) | Stability of the sample (in words) ([1]; −80°C, three freeze-thaw cycles) | Stability of the samples (in words) ([1]; human plasma samples stored at −20°C for 37 days) | Stability of the samples (in words) ([1]; human plasma samples stored at −80°C for 97 days) | Stability of the extracted supernatant (in words) [2] | Stability of the stock solution (in words) ([3]; stock solution at −80°C for 97 days) | Stability of the working solution (in words) ([3]; working solution at −80°C for 97 days) | Stability of the working solution (in words) ([3]; working solution stored at −20°C for 18 days)
